According to patent US11083714B2, “Selective anti-cancer agent effective for prevention and treatment” (Molecular International Research, Inc., priority 2018, dated 2021):

How the values were obtained:
[1] = test system: LnCap; assay: Cell Proliferation (anti-cancer), LnCap; type: cell-based, human
Experimental: The primary goal of synthesizing de-ethylflavopereirine (compound 13-9-1) was to generate a different compound that still retains the anti-cancer cell activity of flavopereirine (compound 13-7-2). Comparison of the effects of the two compounds on proliferation of a variety of cancer cells confirmed that this goal was achieved. For example, the effect of de-ethylflavopereirine on two human breast cancer cell lines and two human prostate cancer cell lines were analyzed.

[2] = Tissue distribution after oral administration; type: in vivo, mice; conditions: oral 200 mg/kg; for Tmax: mouse
Excerpt: The highest concentrations (highest Cmax) were found in kidney, colon and spleen. Highest AUC was found with the lung, followed by spleen, colon, and kidney.
Lung had the largest AUC and the fastest Tmax. […] Compound 13-9-1 was accumulated in the lung relatively fast, and was eliminated relatively slowly. The concentration was maintained in lung for a long time relative to other organs. At 24 hr, the concentration in the lung was still 6.67 nmoles/mg protein, 38% of the peak of 17.50 at 2 hr.
Colon had the second highest Cmax among all the organs tested, and an AUC only less than lung and spleen. […] Tmax was 3 hr. At 24 hr, the concentration was 9.31 nmoles/mg protein, 29% of the peak of 31.63.

[3] = test system: HT-29 tumors; assay: Subcutaneous HT-29 colon cancer xenografts; type: in vivo; conditions: for toxicity and deaths of tumor-bearing mice: mouse, in vivo; for TUNEL staining of tumor sections: tumors removed after treatment
Experimental: FIG. 30. Effect of de-ethylflavopereirine on HT-29 colon cancer tumor volume. Nude mice with subcutaneous xenografts of human HT-29 colon cancer cells were grouped as untreated control (squares), administered compound 13-9-1 (triangles), or administered IFL as conventional chemotherapy regimen (circles). IFL is a combination of irinotecan, fluorouracil, and leucovorin often used for treatment of colorectal cancer. […] Animals were treated for two and a half weeks.
FIGS. 31 to 33 show TUNEL staining of HT-29 tumors removed from untreated mice (control) in FIG. 31, mice administered de-ethylflavopereirine in FIG. 32, or mice administered IFL in FIG. 33. […] After treatments were concluded, tumors were removed from the animals, fixed, thin sectioned, and stained by the TUNEL method to identify cells undergoing apoptosis. In FIG. 31, the borders of tumors from control animals show intact tissue and the absence of TUNEL staining. […] The color images clearly distinguish the dark purple/brown color of cells undergoing apoptotis from the blue color of intact tumor cells.
In this example, the anti-tumor activity of de-ethylflavopereirine was compared with the activity of IFL (a combination of irinotecan, fluorouracil, and leucovorin). IFL has been routinely used in the treatment of colorectal cancer, but is associated with significant toxicity. The toxicity is so severe that some have encapsulated irinotecan in liposomes to reduce negative side effects.
A comparison of the direct impact of de-ethylflavopereirine and IFL on tumors is depicted in FIGS. 32 and 33. Terminal deoxynucleotidyl transferase dUTP nick-end labeling (TUNEL) is a method for detecting DNA fragmentation by labeling the 3′-hydroxyl termini in the double-strand DNA breaks generated during apoptosis. Tumor sections from the two groups and an untreated control group were immunostained by the TUNEL method to specifically identify cells undergoing apoptosis.

In the case of `c1ccc2c(c1)[nH]c1c2cc[n+]2ccccc12` [Compound 13-9-1, 12H-indolo[2,3-a]quinolizin-5-ium], the “Growth Inhibition” value [1] is reported as “Yes”, the IC50 ([1]; Homo sapiens, after any period of treatment, read-out: Minimum Dose (IC50) needed to decrease growth 50% or greater versus control) is reported as 5 µM and the Cmax ([2]; adrenal gland) is reported as 17.62 nmoles/mg of protein. For the same compound, the Cmax ([2]; brain) was 1.20 nmoles/mg of protein, the Cmax ([2]; colon) was 31.63 nmoles/mg of protein and the “concentration at 24 hr” value ([2]; colon) was 9.31 nmoles/mg protein. For the same compound, the “concentration at 24 hr as share of the peak” value ([2]; colon) was 29%, the Cmax ([2]; heart) was 7.82 nmoles/mg of protein and the Cmax ([2]; kidney) was 55.69 nmoles/mg of protein. The Cmax ([2]; liver) was 22.21 nmoles/mg of protein, the Cmax ([2]; lung) was 17.50 nmoles/mg of protein and the “concentration at 24 hr” value ([2]; lung) was 6.67 nmoles/mg protein. For the same compound, the “concentration at 24 hr as share of the peak” value ([2]; lung) was 38%, the Tmax ([2]; adrenal gland) was 4 h and the Tmax ([2]; brain) was 4 h. It also gave a Tmax ([2]; colon) of 3 h, a Tmax ([2]; heart) of 4 h and a Tmax ([2]; kidney) of 4 h. It also gave a Tmax ([2]; liver) of 4 h, a Tmax ([2]; lung) of 2 h and a Tmax ([2]; muscle) of 4 h. The Tmax ([2]; ovary) was 4 h, the Tmax ([2]; pancreas) was 4 h and the Tmax ([2]; spleen) was 4 h. The Cmax ([2]; muscle) was 5.67 nmoles/mg of protein, the tissue distribution [2] was “found in all tested organs and tissues, including the brain” and the Cmax ([2]; ovary) was 11.17 nmoles/mg of protein. The Cmax ([2]; pancreas) was 16.95 nmoles/mg of protein, the Cmax ([2]; spleen) was 30.01 nmoles/mg of protein and the “toxicity and deaths of tumor-bearing mice” value [3] was “did not have toxic effects on the mice”. For the same compound, the “toxicity and deaths of tumor-bearing mice” value ([3]; nude, 2.5 weeks) was “No animals treated with compound 13-9-1 died”, the HT-29 tumor volume ([3]; treated for two and a half weeks) was “reduced HT-29 tumor volumes” and the “TUNEL staining of tumor sections” value [3] was “apoptosis in zones near the periphery of the tumors”. For the same compound, the “TUNEL staining of tumor sections” value ([3]; listed as de-ethylflavopereirine) was “cells on the periphery were undergoing apoptosis”.
